Literature values in US9278976B2, “Aminotetrahydropyrans as dipeptidyl peptidase-IV inhibitors for the treatment of diabetes” (Merck Sharp & Dohme Corp., priority 2008, dated 2016).

Key:
[1] = rats; doubled from day 7
[2] = mouse, cyclophosphamide-induced neutropenia

Structure (SMILES)	cardiac allograft survival [1]	hematopoiesis [2]
CC(C)N1CCC(c2ccccc2)(c2ccccc2)CC1 [Prodipine, Pro-Pro-diphenyl-phosphonate]	14 day	
CC(C)[C@H](N)C(=O)N1CCC[C@H]1B(O)O [Val-Boro-Pro]		stimulated hematopoiesis
